Here are results for four molecules from PMC8296985, “A Covalent Calmodulin Inhibitor as a Tool to Study Cellular Mechanisms of K-Ras-Driven Stemness” (Frontiers in Cell and Developmental Biology, 2021).

By Kd is commonly meant the free concentration of one partner at which half of the binding sites on the other are occupied at equilibrium, for simple one-to-one binding. Low values mean tighter binding, high ones weaker binding. By Ki is commonly meant the dissociation constant of the complex between target and ligand, obtained from inhibition or displacement. High values mean weaker binding, low ones tighter binding.

Where two headings read alike, the source gives them in different places. Bounds are passed on as bounds.

Data set [1] deals with Ca^2+/CaM-dependent cyclic nucleotide phosphodiesterase. More on the design: method as in Itoh and Hidaka, 1984; Zimmer and Hofmann, 1984. As to conditions: ref Itoh and Hidaka, 1984, Zimmer and Hofmann; cited from earlier work.
A further data set deals with α-hemoglobin. On the set-up: method as in earlier work. As to conditions: formyl warhead, ref Center for Drug Evaluation and Research, 2017, Metcalf et al.; cited from earlier work.
The nature of a further data set: Chemical stability note. The data set is classed as physicochemical.
The next data set has as its system MDA-MB-231. Put plainly: 3D spheroid (tumorosphere) formation assay, low attachment, serum-free, alamarBlue. Type of data set: cell-based. As to conditions: for IC50: Homo sapiens. How it is done:
(§1) 3D spheroid formation assays were performed in 96-well low-attachment, suspension culture plates (cat. no. 655185, Cellstar, Greiner Bio-One) under serum-free condition. About 1,000 (MDA-MB-231, NCI-H358, and MIA PaCa-2) or 2,500 (Hs 578T) cells per well were seeded in 50 μl of either an RPMI medium (cat. no. 52400-025, Gibco, Thermo Fisher Scientific) (MDA-MB-231, A375, and NCI-H358) or DMEM (cat. no. 41965-039, Gibco, Thermo Fisher Scientific) (Hs 578T and MIA PaCa-2), containing 0.5% MethoCult (cat. no. SF H4636, Stemcell technologies), 1x B27 (cat. no. 17504044, Gibco, Thermo Fisher Scientific), 25 ng/ml EGF (cat. no. E9644, Sigma-Aldrich), and 25 ng/ml FGF (cat. no. RP-8628, Thermo Fisher Scientific). Cells were cultured for 3 days and then treated with compounds or vehicle control (DMSO 0.1% v/v in growth medium) for another 3 days. The cells were supplemented with a fresh growth medium on the third day together with the drug treatment. For knockdown experiments, cells were seeded in 12-well plates and treated with either 50 nM scrambled siRNA (cat. no. 1022076, QIAGEN) or indicated concentrations of siRNAs. Next day, cells were collected by trypsinization and re-plated into 96-well plates for 3D spheroid suspension culture.
(§2) Spheroid formation efficiency was analyzed by an alamarBlue assay reagent (cat. no. DAL1100, Thermo Fisher Scientific). A 10% final volume of the alamarBlue reagent was added to each well of the plate and incubated for 4 h at 37°C. Then the fluorescence intensity was measured using the FLUOstar OPTIMA plate reader (BMG Labtech, Germany) with an excitation wavelength of 560 ± 5 nm and an emission wavelength of 590 ± 5 nm.
(§3) To quantitatively profile the drug sensitivity with a more robust parameter than the IC50 or EC50 values, the drug sensitivity score (DSS) analysis was employed. DSS values are essentially normalized area under the curve (AUC) measures of dose-response inhibition data ([Yadav et al., 2014]). Drug response data files (in Excel) ready for online analysis were prepared according to the example file obtained from the DSS pipeline website, called Breeze^1 ([Potdar et al., 2020]). Either raw fluorescence intensity measurements or normalized % inhibition data (for BRET assay analysis) were uploaded.
(§4) DSS3 was employed to emphasize drugs that obtain their response area over a relatively wide dose window, as compared to drugs that show increased response only at the higher end of the concentration range. After logistic fitting of the dose-response inhibition data, the area under the curve (AUC) was determined as the exact solution. A 10% minimal activity threshold (t) was set. The maximum (Cmax) and minimum (Cmin) concentrations were used for screening of the inhibitors, with Cmax = x2 and x1 concentration with minimal activity t.
(In general: Resazurin is reduced to fluorescent resorufin, in cell work by metabolically active cells.)

In another data set the test system is Hs 578T. Described as above. As to conditions: Homo sapiens. The data set is classed as cell-based. How it is done: as §1, §2, §3, §4
The next data set deals with calmodulin (CaM) (Bos taurus, UniProt P62157). Put plainly: Fluorescence polarization assay, displacement of F-PMCA peptide from CaM.
The next data set has as its system H-RasG12V. Put plainly: H-RasG12V nanoclustering-BRET assay in HEK293-EBNA cells. The data set is classed as cell-based. As to conditions: FTI-277 1 μM, 24 h. How it is done:
BRET assays were essentially performed as described by others ([Lavoie et al., 2013]; [Bery et al., 2018]). About 100,00–150,000 HEK293-EBNA ([Meissner et al., 2001]) cells were seeded per well of a 12-well plate in 1 ml of DMEM containing 10% FBS and 2 mM L-glutamine and were grown for 24 h. Next day, Rluc8-tagged donor and GFP2-tagged acceptor constructs were transfected into cells using a jetPRIME transfection reagent (cat. no. 114-75, Polyplus). Each well was transfected with about 1 μg of plasmid DNA using 3 μl of the jetPRIME reagent. […] Then fluorescence intensity followed by BRET readings were carried out on a Clariostar (BMG Labtech) plate reader at 25°C. The fluorescence intensity (RFU) of GFP2 was measured with excitation at 405 ± 10 nm and emission 515 ± 10 nm; it is proportional to the acceptor concentration [acceptor]. BRET readings were taken well by well by adding 10 μl of 100 μM coelenterazine 400a (cat. no. C-320, GoldBio), the Rluc8 substrate to each well (final concentration of 10 μM) using the injector present in the plate reader. Luminescence emission intensities were simultaneously recorded at 410 ± 40 nm (RLU, proportional to [donor]) and 515 ± 15 nm (BRET signal).
The raw BRET ratio was calculated as the BRET signal measured at 515 nm divided by the emission signal measured at 410 nm (RLU). […]
For orientation: Bioluminescence resonance energy transfer reports proximity on the nanometre scale.

Protocol for calmodulin (CaM): Compounds were threefold-diluted in an assay buffer (20 mM Tris Cl pH 7.5, 50 mM NaCl, 1 mM CaCl2, and 0.005% Tween 20), and a complex of 100 nM CaM and 10 nM F-PMCA peptide was added. […] Then the plate was incubated overnight at 4°C, and the next day, final readings were taken after a total of 24 h incubation. The fluorescence anisotropy was calculated and plotted against the logarithm of the compound concentration and fit to the log inhibitor vs. response–variable slope (four parameters) equation in Prism (GraphPad).
The potency and selectivity of a covalent inhibitor are governed by two parameters, namely, Ki, the dissociation constant of the initial non-covalent complex, and k2, the rate of the subsequent covalent bond-forming reaction as given in the chemical equation
E and I denote a protein target and its covalent inhibitor, respectively. E ⋅ I is the initial non-covalent complex, and E – I is the final covalent complex. […] This was repeated for several inhibitor concentrations. Then, kobs was plotted against the concentration of the inhibitor, and the data were fit to a hyperbolic equation kobs=k2×[I]/Ki+[I] to obtain Ki and k2. The ratio of k2/Ki represents the second-order rate constant of the reaction of the covalent inhibitor with the target.

Consider `NCCCCCCNS(=O)(=O)c1cccc2c(Cl)cccc12` [Compound W-7], for which the “concentration inhibiting CaM targets” value in data set [1] is over 100 µM.

Take `CC(C)n1nccc1-c1ncccc1COc1cccc(O)c1C=O` [GBT440]: in the data set on α-hemoglobin, the k2/Ki was 15 × 10^3 M^–1 h^–1.

As to `CC(C)c1ccc2cc(C(F)(F)F)c(=O)c3c(N4CCN(C)CC4)c(C=O)c(c1)c23` [Compound 3], the chemical stability result in “Chemical stability note” is “chemically not as stable”. Moreover, the IC50 in the data set on MDA-MB-231 (72 h, MDA-MB-231 (K-RasG13D) 3D tumorosphere, 3 days treatment, read-out: IC50) was 35 µM; in the data set with MDA-MB-231 (MDA-MB-231 3D tumorosphere, log scale, read-out: logIC50 ± SD (converted)), 34.7 µM; in the data set on Hs 578T (72 h, Hs 578T (H-RasG12D) 3D tumorosphere, 3 days treatment, read-out: IC50) it was 25.8 µM; in the data set on Hs 578T (Hs 578T 3D tumorosphere, log scale, read-out: logIC50 ± SD (converted)), 25.1 µM. In addition, the “KRAS/HRAS mutant cell line DSS3 ratio” value in the data set on MDA-MB-231 (MDA-MB-231 vs Hs 578T 3D spheroid formation, 0.6–40 μM, numbers above bars Fig. 1A,B) was 6.0. Further, on calmodulin (CaM), the dissociation constant (Kd) was 0.25 µM. Besides, affinity on calmodulin (CaM) was put at a Ki of 11 µM. For the same molecule, the “affinity for CaM relative to OphA” value at calmodulin (CaM) (after 24-h incubation, higher affinity than OphA) was 15 fold. Besides, the kinact/KI on calmodulin (CaM) (read-out: k2/Ki second-order rate constant) was 11.7 M⁻¹ s⁻¹.

`COC(=O)[C@H](CCSC)NC(=O)c1ccc(NC[C@@H](N)CS)cc1-c1ccccc1` [FTI-277]: the “H-Ras selective decrease of nanoclustering-BRET” value in the data set on H-RasG12V is 1.4 fold.
